Data as given in ChEMBL document CHEMBL1151576, “Synthesis of cyclohexyl analogs of restricticin” (Bioorg Med Chem Lett, 1994).
Values after ≈ are worked out from the molar mass of the structure shown.

Tests used:
Format in all cases: functional
[1] = test system: Candida albicans; experiment: In vitro antifungal activity against Candida albicans CY1005 was determined at pH 7 for inoculum size of 1*10e4 cfu/ml by broth dilution method
[2] = test system: Candida albicans; experiment: In vitro antifungal activity against Candida albicans CY3003 was determined at pH 7 for inoculum size of 1*10e4 cfu/ml by broth dilution method
[3] = test system: Cryptococcus neoformans; experiment: In vitro antifungal activity against Cryptococcus neoformans CY1059 was determined at pH 7 for inoculum size of 1*10e4 cfu/ml by broth dilution method
[4] = test system: Candida albicans; experiment: In vitro antifungal activity against Candida albicans CY1002 was determined at pH 7 for inoculum size of 1*10e4 cfu/ml by broth dilution method
[5] = test system: Cryptococcus neoformans; experiment: In vitro antifungal activity against Cryptococcus neoformans CY1057 was determined at pH 7 for inoculum size of 1*10e4 cfu/ml by broth dilution method
[6] = test system: Aspergillus fumigatus; experiment: In vitro antifungal activity against Aspergillus fumigatus CF1004 was determined at pH 7 for inoculum size of 1*10e4 cfu/ml by broth dilution method
[7] = test system: Aspergillus fumigatus; experiment: In vitro antifungal activity against Aspergillus fumigatus CF1003 was determined at pH 7 for inoculum size of 1*10e4 cfu/ml by broth dilution method

Compound | IC80 [1] | IC80 [2] | IC80 [3] | IC80 [4] | IC80 [5] | IC80 [6] | IC80 [7]
CCc1ccc(CC[C@@H]2CCC(C)(C)[C@H](OC)[C@H]2Cn2ccnc2)cc1 | 0.012 µg/mL (≈ 0.0338 µM) | 0.0025 µg/mL (≈ 0.00705 µM) | 0.14 µg/mL (≈ 0.395 µM) | 0.059 µg/mL (≈ 0.166 µM) | 0.12 µg/mL (≈ 0.338 µM) | 0.19 µg/mL (≈ 0.536 µM) | 0.37 µg/mL (≈ 1.04 µM)
CCCCCCC/C=C/C[C@@H]1OC[C@H](C)[C@H](OC)[C@H]1COC(=O)CN | 1.58 µg/mL (≈ 4.44 µM) | 0.97 µg/mL (≈ 2.73 µM) | 3.2 µg/mL (≈ 9 µM) | 1.8 µg/mL (≈ 5.06 µM) | 2.19 µg/mL (≈ 6.16 µM) | 0.52 µg/mL (≈ 1.46 µM) | 0.73 µg/mL (≈ 2.05 µM)
CCc1ccc(CC[C@@H]2CCC(C)(C)[C@H](OC)[C@H]2Cn2cncn2)cc1 | 0.042 µg/mL (≈ 0.118 µM) | 0.012 µg/mL (≈ 0.0338 µM) | 0.37 µg/mL (≈ 1.04 µM) | 0.098 µg/mL (≈ 0.276 µM) | 0.82 µg/mL (≈ 2.31 µM) | > 200 µg/mL | > 200 µg/mL
OC(Cn1cncn1)(Cn1cncn1)c1ccc(F)cc1F [FLUCONAZOLE] | 2.8 µg/mL (≈ 9.14 µM) | 1.1 µg/mL (≈ 3.59 µM) | 11 µg/mL (≈ 35.9 µM) | 2.6 µg/mL (≈ 8.49 µM) | 3.8 µg/mL (≈ 12.4 µM) | 180 µg/mL (≈ 588 µM) | 200 µg/mL (≈ 653 µM)
CCC(C)n1ncn(-c2ccc(N3CCN(c4ccc(OC[C@H]5CO[C@](Cn6cncn6)(c6ccc(Cl)cc6Cl)O5)cc4)CC3)cc2)c1=O (stereo not given in full) [ITRACONAZOLE] | 0.0056 µg/mL (≈ 0.00794 µM) | 0.0012 µg/mL (≈ 0.0017 µM) | 0.046 µg/mL (≈ 0.0652 µM) | 0.03 µg/mL (≈ 0.0425 µM) | 0.022 µg/mL (≈ 0.0312 µM) | < 0.0004 µg/mL | 0.02 µg/mL (≈ 0.0283 µM)
